This is an account of results in publication PMC10394516, “The pharmacokinetic profile of brensocatib and its effect on pharmacodynamic biomarkers including NE, PR3, and CatG in various rodent species” (Frontiers in Pharmacology, 2023).

Like-named read-outs stand apart in the source and are kept apart here.

This series is described as follows: Plasma PK of brensocatib, BID vs QD oral dosing, C57BL/6 mice. The class given is in vivo. Particulars: both sexes; for AUC(0-t): first 24 h. The method, then:
A dose frequency study was performed in male and female mice (C57BL/6 & BALB/c) and in male and female rats (Sprague Dawley & Wistar) investigating twice daily (BID) versus once daily (QD) brensocatib administration.
Briefly, animals were weighed and randomized into different treatment groups. In total, three different dosing levels of brensocatib were tested in each species and strain; each QD dosing level was equivalent to 1.5-times the matching daily BID dose. For BID dosing, the second daily dose was administered 8-h post the morning dose. C57BL/6 mice were dosed either BID or QD for 7 consecutive days at 0/0, 0.5/0.75, 2/3, and 20/30 mg/kg/day (BID/QD). BALB/c mice were dosed for 7 consecutive days at 0/0, 0.2/0.3, 2/3, and 20/30 mg/kg/day (BID/QD). SD rats were dosed for 9 consecutive days at 0/0, 0.2/0.3, 2/3, and 20/30 mg/kg/day (BID/QD). Wistar rats were dosed for 7 consecutive days at 0/0, 0.2/0.3, 2/3, and 20/30 mg/kg/day (BID/QD).
For sparse PK analysis via LC-MS/MS, plasma was collected from animals during the first 24 h of dosing at prescribed timepoints. The timepoints included 1, 3, 8, and 24 h post initial dose for QD groups, and 1, 3, 8, 9, 11, and 24 h post initial dose for BID groups. Note that the 8- and 24-h plasma samples were prior to the afternoon dose for BID groups and prior to the second day dose for all groups, respectively. See section Quantification of Plasma Brensocatib Concentrations for details.
Blood was collected via the tail-vein technique and centrifuged to separate and collect the plasma. The resulting plasma samples were stored at −20°C or lower until LC-MS/MS analysis.
The plasma concentration of brensocatib was quantified by liquid chromatography, tandem mass spectrometry (LC-MS/MS), a Sciex API6500 mass spectrometer (SCIEX, Framingham, MA). Two brensocatib stock solutions were prepared, one for the preparation of the 8-point standard (STD) curve spiking solutions and the other for the preparation of the quantitative control spiking solutions (QCs) at three levels. The STD curve and QCs were prepared by 2% spiking from the spiking solutions into mouse or rat plasma. The samples were extracted using a protein precipitation method, where 10 µL of sample was mixed with 100 µL of internal standard working solution (100 ng/mL ^6C13-brensocatib in methanol), vortexed for 5 s, and centrifuged at 21,130 × g at 4°C for 15 min. The supernatant was mixed with an equal volume of water and 10 μL was injected into a Phenomenex Kinetex Biphenyl column (3.0 mm × 50 mm; 2.6 μm; 65°C; 0.8 mL/min) with an elution gradient consisting of mobile phase A (10 mM ammonium formate) and mobile phase B (methanol) over 2 min from 5% to 95% B. The mass spectrometer was equipped with an atmospheric-pressure chemical ionization source operating in positive mode.
Individual plasma concentrations were plotted and the area under the curve (AUC) was calculated using the trapezoid method. The elimination rate constant (k e ) was calculated as the negative natural log of the plasma concentration over time (Eq. 1) starting at the max concentration (C max) after the most recent dose to the last measurable plasma concentration between doses. The calculated k e was used to define the half-life (t 1/2 ) based on Eq. 2; where 0.693 is the natural log of 2 and assumes a first-order reaction. ke=−ln∆C/∆t (1) t1/2=0.693/ke (2)

Regarding `Cn1c(=O)oc2ccc(-c3ccc(C[C@@H](C#N)NC(=O)[C@@H]4CNCCCO4)cc3)cc21` [brensocatib], the half-life is approximately 2.5 h (C57BL/6, BALB/c, mouse, oral, mice (both strains), across BID and QD regimens, sparse PK, read-out: half-life (overall) (converted)); 0.63 ± 0.01 h (C57BL/6, mouse, po, 0.5 mg/kg/day, C57BL/6 mice, oral BID, 0.5 mg/kg/day, evening dose, read-out: t1/2, PM dose (converted)); 0.71 ± 0.23 h (C57BL/6, mouse, po, 0.5 mg/kg/day, C57BL/6 mice, oral BID, 0.5 mg/kg/day, morning dose, read-out: t1/2, AM dose (converted)); 9.62 ± 0.95 h (C57BL/6, mouse, po, 0.75 mg/kg/day, C57BL/6 mice, oral QD, 0.75 mg/kg/day, read-out: t1/2, AM dose (converted)); 2.35 ± 0.35 h (C57BL/6, mouse, po, 2 mg/kg/day, C57BL/6 mice, oral BID, 2 mg/kg/day, evening dose, read-out: t1/2, PM dose (converted)); 2.07 ± 0.42 h (C57BL/6, mouse, po, 2 mg/kg/day, C57BL/6 mice, oral BID, 2 mg/kg/day, morning dose, read-out: t1/2, AM dose (converted)). Also, the half-life is 6.38 ± 0.56 h (C57BL/6, mouse, po, 3 mg/kg/day, C57BL/6 mice, oral QD, 3 mg/kg/day, read-out: t1/2, AM dose (converted)); 2.36 ± 0.05 h (C57BL/6, mouse, po, 20 mg/kg/day, C57BL/6 mice, oral BID, 20 mg/kg/day, evening dose, read-out: t1/2, PM dose (converted)); 2.41 ± 0.42 h (C57BL/6, mouse, po, 20 mg/kg/day, C57BL/6 mice, oral BID, 20 mg/kg/day, morning dose, read-out: t1/2, AM dose (converted)); 3.01 ± 0.18 h (C57BL/6, mouse, po, 30 mg/kg/day, C57BL/6 mice, oral QD, 30 mg/kg/day, read-out: t1/2, AM dose (converted)). The AUC(0-t) is 294 ± 49 ng·h/mL (mouse, C57BL/6 mice, oral BID, 0.5 mg/kg/day, read-out: AUC0–24h); 0.7 ± 0.12 µM·h (mouse, C57BL/6 mice, oral BID, 0.5 mg/kg/day, read-out: AUC(0–24)); 2010 ± 154 ng·h/mL (mouse, C57BL/6 mice, oral BID, 2 mg/kg/day, read-out: AUC0–24h); 4.79 ± 0.37 µM·h (mouse, C57BL/6 mice, oral BID, 2 mg/kg/day, read-out: AUC(0–24)); 15900 ng·h/mL (mouse, C57BL/6 mice, oral BID, 20 mg/kg/day, read-out: AUC0–24h); 37.7 ± 8.33 µM·h (mouse, C57BL/6 mice, oral BID, 20 mg/kg/day, read-out: AUC(0–24)). Moreover, the AUC(0-t) worked out at 735 ± 108 ng·h/mL (mouse, C57BL/6 mice, oral QD, 0.75 mg/kg/day, read-out: AUC0–24h); 1.75 ± 0.26 µM·h (mouse, C57BL/6 mice, oral QD, 0.75 mg/kg/day, read-out: AUC(0–24)); 2840 ± 302 ng·h/mL (mouse, C57BL/6 mice, oral QD, 3 mg/kg/day, read-out: AUC0–24h); 6.76 ± 0.72 µM·h (mouse, C57BL/6 mice, oral QD, 3 mg/kg/day, read-out: AUC(0–24)); 52600 ng·h/mL (mouse, C57BL/6 mice, oral QD, 30 mg/kg/day, read-out: AUC0–24h); 125 ± 16 µM·h (mouse, C57BL/6 mice, oral QD, 30 mg/kg/day, read-out: AUC(0–24)).
